This note sets out measurements from ChEMBL document CHEMBL1141517 (Bioorg Med Chem Lett, 2008).

Assay [1] in a line: Inhibition of rabbit muscle Fba. Set-up: species or system Oryctolagus cuniculus.
In another assay the test system is Helicobacter pylori. In words: Ratio of Km of fructose bis-phosphate for Helicobacter pyroli recombinant Fba to Ki of compound for Helicobacter pyroli recombinant Fba.
The nature of assay [2]: Inhibition of Helicobacter pyroli recombinant Fba expressed in Escherichia coli JM 109. Set-up: species or system Helicobacter pylori.
Assay [3] can be described thus: Inhibition of yeast Fba. Set-up: species or system Saccharomyces cerevisiae.
The species entered for the next assay is Oryctolagus cuniculus. Put plainly: Ratio of Km of fructose bis-phosphate for rabbit Fba to Ki of compound for rabbit Fba.
A further assay has as its system Saccharomyces cerevisiae. In words: Ratio of Km of fructose bis-phosphate for yeast Fba to Ki of compound for yeast Fba.

For orientation: Ki means the equilibrium dissociation constant of an inhibitor or competing ligand from its target. In the case of `O=P(O)(O)OC[C@@H](O)[C@@H](O)[C@H](O)[C@H](O)COP(=O)(O)O`, the inhibitory constant (Ki) in assay [1] was determined as 7300 nM; in assay [2], 73 nM; in assay [3], 400 nM. The results for the Ratio with Helicobacter pylori, in the assay listed under Oryctolagus cuniculus and in the assay with Saccharomyces cerevisiae were 0.27, 2.74 and 0.5, respectively.
For `O=P(O)(O)OC[C@@H](O)[C@@H](O)[C@H](O)[C@@H](O)COP(=O)(O)O`, the Ki in assay [1] is 100000 nM; in assay [2], 170 nM; in assay [3], 60 nM. The Ratio amounted to 0.12 in the assay on Helicobacter pylori, 0.2 in the assay listed under Oryctolagus cuniculus and 3.33 in the assay with Saccharomyces cerevisiae.
